From patent publication US20070167421A1, “Pyrimidine derivatives and use thereof as agricultural and horticultural fungicides” (priority 2004, published 2007)

How the values were obtained:
[1] = tested on: Cucumber (variety: SAGAMI HANPAKU); assay: Phytotoxicity studied in Test Example 2; assay type: in vivo; conditions: 500 ppm, foliage spray
Procedure: Cucumber (variety: SAGAMI HANPAKU) was cultivated in a plastic pot of 4 cm diameter. A diluted solution of an active compound of the prescribed concentration, prepared in a similar manner as in the above-mentioned Test Example 1, was sprayed to seedlings reached to cotyledon in an amount of 6 ml per 3 pots. One day after the spraying, a suspension of spores, prepared by washing spores of Sphaerotheca fuliginea taken from previously infected cucumber into distilled water, was inoculated to the plant to be treated by spraying (once) and infected in a green house. Seven days after the inoculation, the contraction rate per pot was classified and evaluated to obtain the controlling value (%). Phytotoxicity was also studied at the same time. This test is an average of the results of 1 section 3 pots.

[2] = tested on: Paddy rice (variety: KOSHIHIKARI); conditions: in vivo
[3] = tested on: nursery stock (variety: OREGON SUPER DELICIOUS) leaves; assay: Phytotoxicity studied in Test Example 4; assay type: in vivo; conditions: 500 ppm, spray on detached leaves of nursery stock
Procedure: A nursery stock (variety: OREGON SUPER DELICIOUS) was cultivated in a plastic pot of 30 cm diameter and its leaves, which had reached at perfect extension stage, were detached from the petiole, were cultivated under hydroponic condition by using a water-holding carrier. After that, a diluted solution of an active compound of the prescribed concentration, prepared in a similar manner as in the above-mentioned Test Example 1, was sprayed to the leaves in an amount of 6 ml per 3 leaves. One day after the spraying, a suspension of spores of artificially cultured Alternaria mali was inoculated to the leaves by spraying (once) and infected by transferring them into a moisturizing box and keeping at 20° C. Four days after the inoculation, the contraction rate per pot was classified and evaluated according to the following standard and the controlling value (%) was obtained. Phytotoxicity was also studied at the same time. This test is an average of the results of 1 section 3 leaves.

Tomato (variety: REGINA) = conditions: in vivo

Compound | Phytotoxicity [1] | Phytotoxicity [2] | Phytotoxicity [3] | also measured
COc1ncnc(N2CCCC2)c1Cc1cccc(F)c1 | – | – | – | melting point: 74 to 76 °C
CS(=O)(=O)c1nc(Cl)c(Cc2ccccc2)c(N2CCCC2)n1 | – | – | – | melting point: 136 to 138 °C
CC(c1ccccc1)c1c(Cl)ncnc1N1CCCC1 (racemic) [Compound 1-6] | No phytotoxicity was observed | – | – | –
Clc1ncnc(N2CCCC2)c1Cc1ccccc1 [Compound 1-5, 5-benzyl-4-chloro-6-pyrrolidin-1-yl-pyrimidine] | No phytotoxicity was observed | No phytotoxicity was observed | No phytotoxicity was observed | Phytotoxicity (Tomato (variety: REGINA)): No phytotoxicity was observed
CC1CCCN1c1ncnc(Cl)c1Cc1ccccc1 (stereo not shown) [Compound 1-11] | No phytotoxicity was observed | No phytotoxicity was observed | – | –
CC1CCCN1c1ncnc(Cl)c1Cc1cccc(F)c1 (stereo not shown) [Compound 1-14] | No phytotoxicity was observed | No phytotoxicity was observed | No phytotoxicity was observed | –
CC1CCCN1c1ncnc(Cl)c1Cc1cccc(Cl)c1 (stereo not shown) [Compound 1-15] | No phytotoxicity was observed | No phytotoxicity was observed | – | –
CC1CCCN1c1ncnc(Cl)c1Cc1ccc(F)c(F)c1 (stereo not shown) [Compound 1-16] | No phytotoxicity was observed | No phytotoxicity was observed | – | –
CC1CCCN1c1ncnc(Cl)c1Cc1cc(F)cc(F)c1 (stereo not shown) [Compound 1-17] | No phytotoxicity was observed | No phytotoxicity was observed | – | –
OC[C@H]1CCCN1c1ncnc(Cl)c1Cc1ccccc1 [Compound 1-22] | – | No phytotoxicity was observed | – | –
Clc1ncnc(N2CC=CC2)c1Cc1ccccc1 [Compound 1-33] | – | No phytotoxicity was observed | No phytotoxicity was observed | –
CC1C=CC(C)N1c1ncnc(Cl)c1Cc1ccccc1 (stereo not shown) [Compound 1-36] | – | No phytotoxicity was observed | No phytotoxicity was observed | –
Clc1ncnc(N2CCSC2)c1Cc1ccccc1 [Compound 1-37] | – | No phytotoxicity was observed | – | –
Clc1cccc(Cc2c(Cl)ncnc2N2CCSC2)c1 [Compound 1-41] | – | – | No phytotoxicity was observed | –
Clc1ncnc(N2CCC=N2)c1Cc1ccccc1 [Compound 1-42] | – | – | No phytotoxicity was observed | –
Fc1ccccc1Cc1c(Cl)ncnc1N1CCCC1 [Compound 1-45] | – | No phytotoxicity was observed | – | –
Clc1ccccc1Cc1c(Cl)ncnc1N1CCCC1 [Compound 1-46] | No phytotoxicity was observed | – | No phytotoxicity was observed | –
Fc1cccc(Cc2c(Cl)ncnc2N2CCCC2)c1 [Compound 1-56, 4-Chloro-5-(3-fluorobenzyl)-6-pyrrolidin-1-yl-pyrimidine] | No phytotoxicity was observed | No phytotoxicity was observed | No phytotoxicity was observed | –
Clc1cccc(Cc2c(Cl)ncnc2N2CCCC2)c1 [Compound 1-57] | No phytotoxicity was observed | No phytotoxicity was observed | – | –
Fc1ccc(Cc2c(Cl)ncnc2N2CCCC2)cc1 [Compound 1-68] | No phytotoxicity was observed | No phytotoxicity was observed | – | –
Fc1ccc(Cc2c(Cl)ncnc2N2CCCC2)cc1F [Compound 1-86] | No phytotoxicity was observed | No phytotoxicity was observed | – | –
Fc1cc(F)cc(Cc2c(Cl)ncnc2N2CCCC2)c1 [Compound 1-87] | No phytotoxicity was observed | No phytotoxicity was observed | – | –
Fc1cccc(Cc2cncnc2N2CCCC2)c1 [Compound 1-102, 5-(3-fluorobenzyl)-4-pyrrolidin-1-yl-pyrimidine] | – | No phytotoxicity was observed | No phytotoxicity was observed | melting point: 51 to 54 °C
CC(C)(C)c1nc(Cl)c(Cc2ccccc2)c(N2CCCC2)n1 [Compound 1-121] | – | – | No phytotoxicity was observed | –
CSc1nc(Cl)c(Cc2ccccc2)c(N2CCCC2)n1 [Compound 1-165, 5-benzyl-4-chloro-2-methylthio-6-pyrrolidin-1-yl-pyrimidine] | – | – | – | melting point: 97 to 99 °C; Phytotoxicity (Tomato (variety: REGINA)): No phytotoxicity was observed
Clc1nc(-c2ccccn2)nc(N2CCCC2)c1Cc1ccccc1 [Compound 1-238] | – | No phytotoxicity was observed | – | Phytotoxicity (Tomato (variety: REGINA)): No phytotoxicity was observed
Clc1nc(-c2ccncc2)nc(N2CCCC2)c1Cc1ccccc1 [Compound 1-304] | – | – | No phytotoxicity was observed | –
Clc1nc(-c2cnccn2)nc(N2CCCC2)c1Cc1ccccc1 [Compound 1-311] | – | – | No phytotoxicity was observed | –
Clc1nc(-n2cncn2)nc(N2CCCC2)c1Cc1ccccc1 [Compound 1-435] | – | – | No phytotoxicity was observed | –
Cc1cc(C)n(-c2nc(C)nc(Cl)c2Cc2ccccc2)n1 [Compound 1-523] | – | – | No phytotoxicity was observed | –
